{
  "source": "paper PMC13422867",
  "about": "“An orally available PfPKG inhibitor blocks Plasmodium’s infection of the liver” (PLOS Pathogens, 2026)",
  "key": {"[1]": {"test_system": "P. berghei sporozoites (PbLuc-GFP)", "assay": "In vivo chemoprotective efficacy against sporozoite liver infection", "parameters": "species or system Plasmodium berghei in mice"}, "hERG": {"test_system": "hERG", "conditions": "in vitro; cited from earlier work"}, "[2]": {"assay": "Cellular cytotoxicity, hepatocyte nuclear counts", "format": "cell-based, human", "conditions": "human, primary cryopreserved human hepatocytes (lot BGW); cellular cytotoxicity", "text": "(§1) Primary cryopreserved hepatocytes were selected based on host-parasite compatibility: primary simian hepatocytes (lot OQB) for P. cynomolgi and human hepatocytes (lot BGW) for P. falciparum (BioIVT Inc., Baltimore, MD, USA). Cells were thawed according to the manufacturer’s protocol and seeded into 384-well collagen-coated assay plates (Greiner Bio-One, Monroe, NC, USA) using InVitroGro CP plating medium (BioIVT). Seeding densities were optimized for uniform monolayer formation, and hepatocytes were allowed to adhere for 24–48 hours before infection. Sporozoites were added at a 1:1.1 hepatocyte-to-sporozoite ratio within 48 hours post-seeding. Automated robotic systems were used for media changes and compound additions to ensure assay consistency and minimize variability associated with manual pipetting.\n(§2) Test compounds (PfPKG inhibitors) and assay drug controls (KDU-691 and tafenoquine) were solubilized in DMSO or PBS and serially diluted into 8- or 12-point, 2- or 3-fold series, achieving final assay concentrations ranging from 20 µM to 0.019 µM. […]\n(§3) High-content imaging was performed using the Operetta CLS system (Revvity) and image analysis was performed with Harmony software version 4.9 (Revvity, Waltham, MA, USA). Images were acquired at 10x or 20x magnification using DAPI and TRITC fluorescence channels. Following the established protocol, parasites were classified as hypnozoites or schizonts based on fluorescence intensity (mean and maximum), morphological features (cell roundness and size), and segmentation criteria. […] Hepatocyte viability was determined by quantifying nuclear counts per well using Hoechst stain intensity thresholds. […] An in-house built Python-based image analysis script identified parasite objects using predefined fluorescence intensity thresholds. […] Parasite size was quantified by calculating the average object area (µm²) of validated parasite structures per well. […] Dose-response inhibition and IC50 were calculated relative to in-plate negative controls (DMSO-treated wells). […]"}, "[3]": {"test_system": "primary human hepatocytes", "assay": "Cellular cytotoxicity, hepatocyte nuclear counts", "format": "cell-based", "conditions": "primary human hepatocytes", "text": "as §1, §2, §3"}, "[4]": {"conditions": "Intravenous, 10 mg/kg x1 (-0.5 hpi)"}},
  "data": [
    {"smiles": "C[C@@H]1CN(C)CC[C@@H]1c1cc(-c2ccncc2)c(-c2ccc(F)cc2)[nH]1.Cl.Cl", "note": "[RUPB-61, 4-{5-[(3S,4S)-1,3-Dimethylpiperidin-4-yl]-2-(4-fluorophenyl)-1H-pyrrol-3-yl}pyridine Dihydrochloride]", "values": [
      {"measurement": "No. of mice patent by D21/ No. of mice inoculated", "setting": "[1]; [4]", "value": "0/5"},
      {"measurement": "Prepatent period mean ± sd", "setting": "[1]; [4]", "value": "negative"},
      {"measurement": "No. of mice patent by D21/ No. of mice inoculated", "setting": "[1]; Oral, 10 mg/kg x1 (-3 hpi)", "value": "0/5"},
      {"measurement": "Prepatent period mean ± sd", "setting": "[1]; Oral, 10 mg/kg x1 (-3 hpi)", "value": "negative"},
      {"measurement": "mice developing detectable blood stage infection in the 3-week monitoring period", "setting": "[1]; single dose 10 mg/kg, PO (-3 hpi) and IV (-0.5 hpi), 10 mice", "value": "none"},
      {"measurement": "cardiovascular risk as judged by hERG inhibition", "setting": "hERG", "value": "low preliminary cardiovascular risks"},
      {"measurement": "CC50 at 3 days", "setting": "[2]", "value": "> 20", "unit": "µM"},
      {"measurement": "cytotoxicity against PHH", "setting": "[3]", "value": "no cytotoxicity"}
    ]}
  ]
}
